Test results published in PubChem BioAssay (NCI).
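Cells were grown in 96-well plates and exposed to each compound for 48 hours at five concentrations; endpoints were interpolated linearly between bracketing concentrations, or set to the highest concentration if not reached. TGI: concentration producing complete growth inhibition.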

Tests used:
Assay in all cases: growth of human tumour cells (NCI), 48 h
LOX IMVI melanoma = test system: LOX IMVI melanoma
RXF 393 renal = test system: RXF 393 renal
SF-268 CNS = test system: SF-268 CNS
HL-60(TB) leukemia = test system: HL-60(TB) leukemia
A498 renal = test system: A498 renal
HCC-2998 colon = test system: HCC-2998 colon
SNB-19 CNS = test system: SNB-19 CNS
UACC-257 melanoma = test system: UACC-257 melanoma
IGROV1 ovarian = test system: IGROV1 ovarian
SW-620 colon = test system: SW-620 colon
SF-539 CNS = test system: SF-539 CNS
SK-MEL-5 melanoma = test system: SK-MEL-5 melanoma
UACC-62 melanoma = test system: UACC-62 melanoma
SN12C renal = test system: SN12C renal
A549 NSCLC = test system: A549 NSCLC
OVCAR-4 ovarian = test system: OVCAR-4 ovarian
TK-10 renal = test system: TK-10 renal
CCRF-CEM leukemia = test system: CCRF-CEM leukemia
SK-OV-3 ovarian = test system: SK-OV-3 ovarian
MCF7 breast = test system: MCF7 breast
KM12 colon = test system: KM12 colon
SF-295 CNS = test system: SF-295 CNS
T-47D breast = test system: T-47D breast
SK-MEL-28 melanoma = test system: SK-MEL-28 melanoma
MALME-3M melanoma = test system: MALME-3M melanoma
OVCAR-3 ovarian = test system: OVCAR-3 ovarian
NCI-H23 lung = test system: NCI-H23 lung
HT29 colon = test system: HT29 colon
MDA-MB-435 = test system: MDA-MB-435
K-562 leukemia = test system: K-562 leukemia
MDA-MB-231 breast = test system: MDA-MB-231 breast
M14 melanoma = test system: M14 melanoma
HOP-92 NSCLC = test system: HOP-92 NSCLC
CAKI-1 renal = test system: CAKI-1 renal
MOLT-4 leukemia = test system: MOLT-4 leukemia
OVCAR-5 ovarian = test system: OVCAR-5 ovarian
786-0 renal = test system: 786-0 renal
UO-31 renal = test system: UO-31 renal
NCI-H460 lung = test system: NCI-H460 lung
BT-549 breast = test system: BT-549 breast
MDA-N = test system: MDA-N
DU-145 prostate = test system: DU-145 prostate
ACHN renal = test system: ACHN renal
HOP-62 NSCLC = test system: HOP-62 NSCLC
SNB-75 CNS = test system: SNB-75 CNS
SR leukemia = test system: SR leukemia
PC-3 prostate = test system: PC-3 prostate
RPMI-8226 leukemia = test system: RPMI-8226 leukemia
HCT-116 colon = test system: HCT-116 colon
HS 578T breast = test system: HS 578T breast
U251 CNS = test system: U251 CNS
COLO 205 colon = test system: COLO 205 colon
EKVX NSCLC = test system: EKVX NSCLC
OVCAR-8 ovarian = test system: OVCAR-8 ovarian
HCT-15 colon = test system: HCT-15 colon
NCI/ADR-RES ovarian = test system: NCI/ADR-RES ovarian
SK-MEL-2 melanoma = test system: SK-MEL-2 melanoma

Measured: TGI

[N-]=[N+]=NC1=CC(=O)c2cccc3cccc1c23
42.1 µM: UACC-62 melanoma
71 µM: U251 CNS
66.7 µM: HOP-92 NSCLC
38.9 µM: A498 renal
72.2 µM: UACC-257 melanoma
> 100 µM: LOX IMVI melanoma | SF-268 CNS | HL-60(TB) leukemia | HCC-2998 colon | SNB-19 CNS | SW-620 colon | SN12C renal | A549 NSCLC | OVCAR-4 ovarian | CCRF-CEM leukemia | MCF7 breast | KM12 colon | T-47D breast | SK-MEL-28 melanoma | MALME-3M melanoma | OVCAR-3 ovarian | HT29 colon | MDA-MB-435 | K-562 leukemia | MDA-MB-231 breast | CAKI-1 renal | MOLT-4 leukemia | OVCAR-5 ovarian | 786-0 renal | UO-31 renal | NCI-H460 lung | MDA-N | DU-145 prostate | ACHN renal | SR leukemia | PC-3 prostate | RPMI-8226 leukemia | HCT-116 colon | COLO 205 colon
35.6 µM: SK-OV-3 ovarian
84.3 µM: SF-295 CNS
27.8 µM: SK-MEL-5 melanoma
82 µM: NCI-H23 lung
69.8 µM: HS 578T breast
88.2 µM: TK-10 renal
31 µM: SNB-75 CNS
48.1 µM: HOP-62 NSCLC
63 µM: BT-549 breast
88 µM: SF-539 CNS
51.8 µM: IGROV1 ovarian
34.5 µM: RXF 393 renal
82.8 µM: M14 melanoma

CC1CN=C(N(C)C(=O)Nc2ccc(Cl)cc2)S1 (stereo not drawn)
68.8 µM: HOP-92 NSCLC
30.8 µM: SF-539 CNS
66.4 µM: OVCAR-5 ovarian
41.8 µM: SK-MEL-28 melanoma
22 µM: SK-MEL-5 melanoma
92.2 µM: SR leukemia
37.5 µM: NCI/ADR-RES ovarian
65.6 µM: T-47D breast
35.5 µM: UACC-257 melanoma
> 100 µM: LOX IMVI melanoma | SF-268 CNS | EKVX NSCLC | HL-60(TB) leukemia | OVCAR-8 ovarian | A498 renal | HCC-2998 colon | SNB-19 CNS | IGROV1 ovarian | SW-620 colon | HCT-15 colon | SN12C renal | A549 NSCLC | OVCAR-4 ovarian | TK-10 renal | SK-OV-3 ovarian | MCF7 breast | KM12 colon | SF-295 CNS | MALME-3M melanoma | OVCAR-3 ovarian | NCI-H23 lung | HT29 colon | K-562 leukemia | MDA-MB-231 breast | M14 melanoma | CAKI-1 renal | 786-0 renal | NCI-H460 lung | MDA-N | DU-145 prostate | HOP-62 NSCLC | SNB-75 CNS | PC-3 prostate | HCT-116 colon | HS 578T breast | U251 CNS
80.2 µM: COLO 205 colon
44.1 µM: MOLT-4 leukemia
95.6 µM: ACHN renal
61 µM: UO-31 renal
37.3 µM: SK-MEL-2 melanoma
